The source made the active and inactive calls.
Assays:
[1] = Trypanosoma cruzi growth suppression in host cells – NIH3T3 host cells, beta-gal luminescence, confirmation (AID 2044); assay type: functional, cell-based;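 also: intracellular parasites grown in NIH/3T3 mouse fibroblasts as host cells; luminescent beta-galactosidase reporter signal from transgenic T. cruzi replicating inside host cells; inhibitors lower the luminescence signal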
[2] = target: T1, Short transient receptor potential channel 4 (Mus musculus, UniProt Q9QUQ5); test: calcium entry via TRPC4 opening agents – cell-based, HEK293 TRPC4/mu-opioid, Fluo-4 calcium, dose response (AID 434937); assay type: functional
T1 sequence (Q9QUQ5 whole entry): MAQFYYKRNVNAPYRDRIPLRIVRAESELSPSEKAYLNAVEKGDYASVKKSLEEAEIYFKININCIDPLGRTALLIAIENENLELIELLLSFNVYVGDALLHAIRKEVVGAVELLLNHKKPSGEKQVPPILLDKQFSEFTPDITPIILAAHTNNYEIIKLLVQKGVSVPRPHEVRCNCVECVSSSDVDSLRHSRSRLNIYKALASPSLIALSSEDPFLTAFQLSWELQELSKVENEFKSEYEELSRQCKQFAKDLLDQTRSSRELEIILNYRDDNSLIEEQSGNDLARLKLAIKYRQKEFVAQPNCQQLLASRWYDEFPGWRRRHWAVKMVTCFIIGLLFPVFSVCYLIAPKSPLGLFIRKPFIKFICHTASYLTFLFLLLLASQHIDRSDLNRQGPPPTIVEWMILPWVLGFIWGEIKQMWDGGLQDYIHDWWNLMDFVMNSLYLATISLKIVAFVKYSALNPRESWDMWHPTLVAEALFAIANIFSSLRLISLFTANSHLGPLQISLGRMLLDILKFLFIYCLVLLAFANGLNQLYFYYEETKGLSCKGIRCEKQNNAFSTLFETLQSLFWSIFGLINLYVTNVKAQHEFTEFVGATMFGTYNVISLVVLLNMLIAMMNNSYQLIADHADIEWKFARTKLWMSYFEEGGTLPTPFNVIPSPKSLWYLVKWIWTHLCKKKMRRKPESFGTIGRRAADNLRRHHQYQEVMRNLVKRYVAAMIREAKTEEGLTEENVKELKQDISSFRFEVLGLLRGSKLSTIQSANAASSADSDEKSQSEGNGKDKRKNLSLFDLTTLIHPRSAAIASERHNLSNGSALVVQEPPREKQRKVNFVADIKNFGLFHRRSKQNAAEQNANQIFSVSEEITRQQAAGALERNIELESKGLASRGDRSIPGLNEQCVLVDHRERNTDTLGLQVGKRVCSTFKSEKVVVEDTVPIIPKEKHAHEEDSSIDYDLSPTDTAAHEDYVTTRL

[3] = NIH3T3 cell viability loss – ATP luminescence, mouse fibroblasts, counter-screen, dose response (AID 2010); assay type: functional, cell-based;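 also: cells exposed to compound for about 90 hours before reading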
[4] = target: Alkaline phosphatase, placental type (Homo sapiens, UniProt P05187); test: human placental alkaline phosphatase inhibition – biochemical, luminescence, confirmation (AID 1512); assay type: functional
[5] = target: T2, Alkaline phosphatase, tissue-nonspecific isozyme (Homo sapiens, UniProt P05186); test: potency against alkaline phosphatase TNAP – biochemical, luminescent, dose response, SAR follow-up (AID 1056)
T2 sequence (P05186 whole entry): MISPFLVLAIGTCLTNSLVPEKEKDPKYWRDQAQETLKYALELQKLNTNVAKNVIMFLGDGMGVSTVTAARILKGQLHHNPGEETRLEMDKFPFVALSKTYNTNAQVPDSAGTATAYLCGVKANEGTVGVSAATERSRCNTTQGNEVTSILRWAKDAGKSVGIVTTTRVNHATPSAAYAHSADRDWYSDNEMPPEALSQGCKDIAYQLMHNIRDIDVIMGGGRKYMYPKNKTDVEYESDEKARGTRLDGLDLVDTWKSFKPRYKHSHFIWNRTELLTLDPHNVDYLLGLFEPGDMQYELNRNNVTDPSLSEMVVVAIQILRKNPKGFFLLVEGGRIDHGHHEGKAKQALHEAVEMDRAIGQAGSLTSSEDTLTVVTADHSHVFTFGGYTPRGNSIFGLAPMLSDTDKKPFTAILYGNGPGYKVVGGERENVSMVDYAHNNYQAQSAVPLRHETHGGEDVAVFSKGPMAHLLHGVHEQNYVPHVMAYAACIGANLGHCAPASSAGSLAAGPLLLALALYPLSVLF

[6] = target: Glyceraldehyde-3-phosphate dehydrogenase (Homo sapiens, UniProt P04406)
[7] = target: Voltage-dependent T-type calcium channel subunit alpha-1H (Homo sapiens, UniProt O95180); assay type: functional;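 also: channel activity triggered by adding a high calcium stimulation buffer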
[8] = HepG2 cell cytotoxicity, dose response, cytotoxicity control for non-replicating M. tuberculosis project (AID 489018); assay type: functional; details: Mycobacterium tuberculosis
[9] = THP-1 cell cytotoxicity, dose response, cytotoxicity control for non-replicating M. tuberculosis project (AID 489025); assay type: functional
[10] = microbe, parasite or virus in culture; assay type: functional; details: Mycobacterium tuberculosis
[11] = Vero E6 cell cytotoxicity, dose response, cytotoxicity control for non-replicating M. tuberculosis project, secondary assay (AID 492998); assay type: functional, VeroE6; details: Vero C1008
cells = assay type: functional
[12] = general cell-killing toxicity readout – plate reader, dry powder samples, cytotoxicity control for PAX8 inhibitor project, dose response (AID 743021); assay type: functional, cell-based
[13] = Luminescence-based dose response cell-based high throughput screening assay for cytotoxic compounds using the IEC-6 intestinal epithelial cell line. [Related pubchem assays: 1858 (Summary AID.), 1825 (Counterscreen.), 1907 (Confirmation screen.)]; assay type: functional
Protein RecA = target: T3, Protein RecA (Mycobacterium tuberculosis, UniProt P9WHJ3); test: Fluorescence Cell-Free Homogeneous Dose Retest to Identify Inhibitors of RecA-Intein Splicing Activity. [Related pubchem assays (depositor defined):AID2097, AID2223, AID489010, AID492950]; assay type: functional
T3 sequence (P9WHJ3 whole entry): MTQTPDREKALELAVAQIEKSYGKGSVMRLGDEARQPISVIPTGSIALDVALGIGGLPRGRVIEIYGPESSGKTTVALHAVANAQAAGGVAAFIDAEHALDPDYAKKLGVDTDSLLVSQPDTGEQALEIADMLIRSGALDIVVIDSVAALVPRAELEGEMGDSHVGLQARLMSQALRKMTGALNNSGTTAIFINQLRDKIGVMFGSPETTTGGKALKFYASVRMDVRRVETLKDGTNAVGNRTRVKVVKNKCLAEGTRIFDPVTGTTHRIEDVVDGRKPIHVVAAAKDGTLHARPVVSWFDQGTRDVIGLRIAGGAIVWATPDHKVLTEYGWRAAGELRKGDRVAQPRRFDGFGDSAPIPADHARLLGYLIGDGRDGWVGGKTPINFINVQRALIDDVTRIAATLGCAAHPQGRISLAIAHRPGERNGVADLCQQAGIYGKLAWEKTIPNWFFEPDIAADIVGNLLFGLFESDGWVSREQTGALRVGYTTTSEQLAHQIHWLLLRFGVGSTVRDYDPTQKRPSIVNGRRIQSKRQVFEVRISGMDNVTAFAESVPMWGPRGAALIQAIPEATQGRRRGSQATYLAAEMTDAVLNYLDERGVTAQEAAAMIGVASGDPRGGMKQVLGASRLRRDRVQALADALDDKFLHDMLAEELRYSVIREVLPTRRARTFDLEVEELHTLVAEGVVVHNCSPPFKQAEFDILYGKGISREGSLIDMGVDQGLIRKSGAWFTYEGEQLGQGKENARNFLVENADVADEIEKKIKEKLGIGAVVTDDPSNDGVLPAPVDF

BJ [14] = test: BJ-TERT fibroblast viability loss – cell-based, RAS-independent, luminescence, dose response (AID 1933); assay type: functional; details: Homo sapiens
BJ [15] = test: growth inhibition of engineered Ras-driven BJ cells – cell-based, alamar blue fluorescence, cherrypicked samples, dose response (AID 2631); assay type: functional; details: Homo sapiens;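 also: confirmatory dose-response assay in RAS-dependent BJ fibroblasts engineered with TERT, LT and ST, with cytotoxicity read by fluorescence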
[16] = luciferase reporter signal suppression in cells – H4 neuroglioma cells, luminescence, dose response (AID 1990); assay type: functional, cell-based
INS1 = test: INS-1E survival protection against cytokine death – cell-based, luminescence, retest, dose response (AID 449756); assay type: functional; details: Rattus norvegicus;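 also: cell death triggered by IL-1 beta plus TNF-alpha plus IFN-gamma mixture; protective hits raise ATP signal compared with cytokine alone wells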
BJ [17] = test: BJ-TERT-LT-ST fibroblast viability loss – cell-based, RAS-independent, luminescence, dose response (AID 1935); assay type: functional; details: Homo sapiens;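 also: BJ fibroblasts immortalized with TERT plus LT and ST oncogenes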
Paired box protein Pax-8 = Paired box protein Pax-8 (Homo sapiens, UniProt Q06710); test: PAX8 transcriptional activity inhibition in RMG-I – RMG-I cells, luciferase, cherry-pick, dose response (AID 687027); assay type: functional, cell-based;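 also: luciferase reporter driven by Pax8 target thyroperoxidase promoter measured by SteadyGlo luminescence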
[18] = alpha-synuclein stem-loop luciferase translation blockers – H4 neuroglioma cells, luminescence, confirmation (AID 1988); assay type: functional, cell-based
[19] = DRD fibroblast viability loss – cell-based, non-viral oncogenic, luminescence, dose response (AID 1934); assay type: functional; details: Homo sapiens
BJ [20] = test: cells; assay type: functional, cell-based; details: Homo sapiens
[21] = Luminescence Cell-Based Dose Response HTS to Identify Inhibitors of 5'UTR Stem-Loop Driven Prion Protein mRNA Translation in H4 Neuroglioblastoma Cells. [Related pubchem assays: 1827 (Project Summary), 1813 (Primary HTS)]; assay type: functional
[22] = target: T4, Replicative DNA helicase DnaB (Mycobacterium tuberculosis, UniProt P9WMR3); test: DnaB intein splicing inhibitors, dose response, biochemical, cell-free fluorescence (AID 449749); assay type: functional
T4 sequence (P9WMR3 whole entry): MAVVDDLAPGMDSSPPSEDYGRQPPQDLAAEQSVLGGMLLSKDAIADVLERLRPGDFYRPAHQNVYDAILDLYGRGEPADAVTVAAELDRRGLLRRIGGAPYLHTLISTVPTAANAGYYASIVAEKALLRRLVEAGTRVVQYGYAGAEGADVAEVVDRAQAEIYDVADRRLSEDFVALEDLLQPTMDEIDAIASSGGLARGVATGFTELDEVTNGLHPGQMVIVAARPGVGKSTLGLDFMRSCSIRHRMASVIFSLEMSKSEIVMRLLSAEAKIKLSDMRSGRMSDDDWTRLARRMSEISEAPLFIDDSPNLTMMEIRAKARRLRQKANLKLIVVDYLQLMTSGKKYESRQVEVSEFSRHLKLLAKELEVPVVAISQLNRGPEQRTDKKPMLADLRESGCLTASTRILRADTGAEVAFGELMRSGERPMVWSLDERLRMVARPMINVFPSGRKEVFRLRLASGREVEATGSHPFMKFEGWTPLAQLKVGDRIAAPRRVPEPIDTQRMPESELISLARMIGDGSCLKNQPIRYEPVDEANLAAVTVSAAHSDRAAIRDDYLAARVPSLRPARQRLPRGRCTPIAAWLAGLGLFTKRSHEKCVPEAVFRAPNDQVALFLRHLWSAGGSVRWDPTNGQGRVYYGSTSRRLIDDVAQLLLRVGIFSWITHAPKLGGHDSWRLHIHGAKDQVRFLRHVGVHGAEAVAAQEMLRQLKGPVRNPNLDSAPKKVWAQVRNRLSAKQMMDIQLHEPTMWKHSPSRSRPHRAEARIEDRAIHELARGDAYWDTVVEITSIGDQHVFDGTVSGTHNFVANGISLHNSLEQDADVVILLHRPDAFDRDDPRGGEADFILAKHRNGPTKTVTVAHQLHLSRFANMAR

[23] = target: DNA dC->dU-editing enzyme APOBEC-3G (Homo sapiens, UniProt Q9HC16); test: Dose Response confirmation of small molecule APOBEC3G DNA Deaminase Inhibitors via a fluorescence-based single-stranded DNA deaminase assay. [Related pubchem assays (depositor defined):AID493012, AID493028]; assay type: functional
Vero = test: cells; assay type: functional; details: Chlorocebus sabaeus

Glyceraldehyde-3-phosphate dehydrogenase, sequence (P04406 whole entry): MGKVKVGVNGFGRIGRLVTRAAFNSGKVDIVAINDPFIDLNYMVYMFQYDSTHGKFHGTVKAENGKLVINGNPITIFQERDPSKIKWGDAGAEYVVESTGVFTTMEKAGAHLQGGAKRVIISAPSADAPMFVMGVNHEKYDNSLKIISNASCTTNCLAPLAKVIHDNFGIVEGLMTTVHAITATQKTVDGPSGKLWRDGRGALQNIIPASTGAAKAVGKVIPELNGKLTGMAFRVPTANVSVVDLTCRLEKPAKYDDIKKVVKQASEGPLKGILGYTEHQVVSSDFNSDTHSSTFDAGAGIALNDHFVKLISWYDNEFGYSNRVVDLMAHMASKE
Voltage-dependent T-type calcium channel subunit alpha-1H, sequence (O95180 whole entry): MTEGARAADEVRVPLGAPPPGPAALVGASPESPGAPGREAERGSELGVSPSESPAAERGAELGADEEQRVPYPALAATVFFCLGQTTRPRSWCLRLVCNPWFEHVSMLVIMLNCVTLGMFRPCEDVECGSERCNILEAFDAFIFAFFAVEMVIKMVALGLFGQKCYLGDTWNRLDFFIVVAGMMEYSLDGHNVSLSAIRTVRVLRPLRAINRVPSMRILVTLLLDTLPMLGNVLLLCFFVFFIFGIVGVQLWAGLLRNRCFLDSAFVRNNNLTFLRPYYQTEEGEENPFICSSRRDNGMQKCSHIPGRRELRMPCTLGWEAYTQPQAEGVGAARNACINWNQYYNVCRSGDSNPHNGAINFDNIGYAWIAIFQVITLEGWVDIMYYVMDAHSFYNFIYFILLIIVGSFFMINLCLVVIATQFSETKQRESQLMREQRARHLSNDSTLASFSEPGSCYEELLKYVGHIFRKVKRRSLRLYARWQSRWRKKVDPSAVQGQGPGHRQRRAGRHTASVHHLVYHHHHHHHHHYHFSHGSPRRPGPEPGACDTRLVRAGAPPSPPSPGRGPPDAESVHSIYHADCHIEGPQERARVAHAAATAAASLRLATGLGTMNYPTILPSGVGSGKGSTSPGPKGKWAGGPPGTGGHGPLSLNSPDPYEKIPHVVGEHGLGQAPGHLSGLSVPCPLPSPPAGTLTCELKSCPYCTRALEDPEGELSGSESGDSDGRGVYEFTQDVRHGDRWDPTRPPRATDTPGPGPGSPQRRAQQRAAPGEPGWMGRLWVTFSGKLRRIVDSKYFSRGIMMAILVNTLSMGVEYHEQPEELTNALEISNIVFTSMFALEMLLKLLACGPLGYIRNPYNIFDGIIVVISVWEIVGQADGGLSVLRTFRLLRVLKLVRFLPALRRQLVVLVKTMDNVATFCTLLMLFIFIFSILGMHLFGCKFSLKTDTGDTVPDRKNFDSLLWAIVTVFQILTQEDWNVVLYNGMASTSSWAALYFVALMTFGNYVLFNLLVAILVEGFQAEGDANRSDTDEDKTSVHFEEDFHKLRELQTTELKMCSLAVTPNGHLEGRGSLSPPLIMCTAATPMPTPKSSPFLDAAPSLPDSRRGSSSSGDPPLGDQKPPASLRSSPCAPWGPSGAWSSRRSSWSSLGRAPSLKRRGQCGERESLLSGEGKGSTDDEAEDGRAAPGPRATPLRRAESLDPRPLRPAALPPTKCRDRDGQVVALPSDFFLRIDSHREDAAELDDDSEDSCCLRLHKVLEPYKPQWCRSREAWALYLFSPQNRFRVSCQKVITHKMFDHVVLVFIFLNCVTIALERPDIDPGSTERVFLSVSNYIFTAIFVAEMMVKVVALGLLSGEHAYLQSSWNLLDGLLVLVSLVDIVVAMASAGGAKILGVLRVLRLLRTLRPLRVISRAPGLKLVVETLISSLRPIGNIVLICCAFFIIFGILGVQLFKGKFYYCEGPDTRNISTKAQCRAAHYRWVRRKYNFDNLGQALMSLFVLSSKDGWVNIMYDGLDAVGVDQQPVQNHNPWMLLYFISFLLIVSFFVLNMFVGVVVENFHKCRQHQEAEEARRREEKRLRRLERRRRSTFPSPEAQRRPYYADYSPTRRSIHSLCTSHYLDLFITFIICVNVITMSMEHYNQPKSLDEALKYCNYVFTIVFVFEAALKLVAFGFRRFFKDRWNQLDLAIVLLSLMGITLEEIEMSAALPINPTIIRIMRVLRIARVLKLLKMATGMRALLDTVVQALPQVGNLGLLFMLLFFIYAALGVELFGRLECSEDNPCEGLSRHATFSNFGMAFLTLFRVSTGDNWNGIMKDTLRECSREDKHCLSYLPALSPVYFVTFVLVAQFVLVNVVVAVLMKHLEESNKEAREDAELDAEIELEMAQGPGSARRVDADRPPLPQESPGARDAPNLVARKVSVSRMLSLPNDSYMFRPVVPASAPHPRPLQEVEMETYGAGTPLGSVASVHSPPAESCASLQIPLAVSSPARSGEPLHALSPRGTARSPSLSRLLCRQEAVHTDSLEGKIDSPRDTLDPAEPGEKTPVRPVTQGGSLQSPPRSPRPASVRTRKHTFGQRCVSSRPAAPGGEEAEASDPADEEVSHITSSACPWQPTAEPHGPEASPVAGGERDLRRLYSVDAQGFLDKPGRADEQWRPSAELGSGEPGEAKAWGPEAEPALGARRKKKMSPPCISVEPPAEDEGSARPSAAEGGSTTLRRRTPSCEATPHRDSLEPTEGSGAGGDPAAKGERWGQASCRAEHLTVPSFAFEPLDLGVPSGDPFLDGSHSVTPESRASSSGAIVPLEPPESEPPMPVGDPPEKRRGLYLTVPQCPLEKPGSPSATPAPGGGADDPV
Alkaline phosphatase, placental type, sequence (P05187 whole entry): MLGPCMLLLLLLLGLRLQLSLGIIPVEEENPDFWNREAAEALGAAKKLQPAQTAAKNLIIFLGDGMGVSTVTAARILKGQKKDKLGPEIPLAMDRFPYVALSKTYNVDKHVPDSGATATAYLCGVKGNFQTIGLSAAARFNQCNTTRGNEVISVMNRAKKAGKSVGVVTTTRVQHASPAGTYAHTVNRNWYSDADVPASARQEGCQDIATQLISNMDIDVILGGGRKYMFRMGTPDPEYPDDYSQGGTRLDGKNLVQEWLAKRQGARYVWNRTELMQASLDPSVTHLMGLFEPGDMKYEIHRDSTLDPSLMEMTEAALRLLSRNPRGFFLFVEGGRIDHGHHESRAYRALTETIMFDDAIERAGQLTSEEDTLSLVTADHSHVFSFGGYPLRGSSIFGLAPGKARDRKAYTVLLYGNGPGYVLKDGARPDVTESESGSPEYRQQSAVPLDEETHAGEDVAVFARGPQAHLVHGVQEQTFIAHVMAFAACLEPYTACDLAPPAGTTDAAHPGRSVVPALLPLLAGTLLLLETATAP
DNA dC->dU-editing enzyme APOBEC-3G, sequence (Q9HC16 whole entry): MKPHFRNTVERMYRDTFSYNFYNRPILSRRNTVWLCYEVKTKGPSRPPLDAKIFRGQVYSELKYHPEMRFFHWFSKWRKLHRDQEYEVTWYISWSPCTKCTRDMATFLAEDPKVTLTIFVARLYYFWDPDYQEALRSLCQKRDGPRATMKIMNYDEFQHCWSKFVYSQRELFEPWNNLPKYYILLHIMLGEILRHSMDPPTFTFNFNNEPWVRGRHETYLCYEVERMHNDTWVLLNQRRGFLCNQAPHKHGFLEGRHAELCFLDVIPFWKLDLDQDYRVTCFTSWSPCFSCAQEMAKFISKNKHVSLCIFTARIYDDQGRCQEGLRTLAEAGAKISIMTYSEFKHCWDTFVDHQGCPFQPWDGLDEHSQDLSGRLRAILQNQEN
Paired box protein Pax-8, sequence (Q06710 whole entry): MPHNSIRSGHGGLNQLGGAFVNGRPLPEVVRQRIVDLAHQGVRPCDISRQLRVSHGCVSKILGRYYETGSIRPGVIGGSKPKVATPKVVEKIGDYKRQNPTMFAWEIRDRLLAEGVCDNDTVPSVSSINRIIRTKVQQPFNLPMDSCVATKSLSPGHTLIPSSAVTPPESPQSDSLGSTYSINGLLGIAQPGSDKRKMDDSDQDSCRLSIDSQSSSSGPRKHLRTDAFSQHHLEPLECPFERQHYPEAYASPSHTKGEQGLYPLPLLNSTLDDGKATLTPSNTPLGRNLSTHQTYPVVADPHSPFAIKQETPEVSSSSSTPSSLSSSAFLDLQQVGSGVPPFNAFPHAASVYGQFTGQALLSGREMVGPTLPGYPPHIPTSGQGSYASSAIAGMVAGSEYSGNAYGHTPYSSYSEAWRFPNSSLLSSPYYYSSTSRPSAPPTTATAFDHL

CCN1CCN(c2ccc(S(=O)(=O)N3CCCCC3)cc2NC(=O)COc2ccccc2)CC1
EC50 [1]: 1.01 µM (active)
EC50 [2]: 6.68 µM (active)
EC50 [3]: > 60 µM (not active)

CC1(C)CC(=O)c2c(-c3cccc(Br)c3)n[nH]c2C1
IC50 [4]: > 100 µM (inactive)
IC50 [5]: > 100 µM (inactive)
IC50 [6]: > 100 µM (not active)

O=C(CSc1nnc(-c2ccccc2Cl)[nH]1)c1ccc(O)c(O)c1
IC50 [4]: 8.15 µM (active)
IC50 [5]: 1.36 µM (active)
IC50 [6]: > 100 µM (not active)

Cc1ccc(C(=O)Nc2ccc3c(c2)OCO3)cc1S(=O)(=O)N1CCCCC1
EC50 [7]: 4.78 µM (active)

CN1CC=C(/C=C/c2ccc(-c3ccccc3)cc2)CC1
CC50 [8]: 12 µM (active)
CC50 [9]: 23.7 µM (active)
EC50 [1]: 2.12 µM (active)
CC50 [10]: 8.12 µM (active)
EC50 [3]: 8.86 µM (active)
CC50 [11]: 9.99 µM (active)
IC50 (cells): 26.6 µM (active)

COc1ccc(C2C(O)C(c3c[nH]c4ccccc34)=NN2C(=O)CCl)cc1 (stereo not drawn)
AC50 [12]: 0.954 µM (active)
IC50 [13]: 1.49 µM (active)
EC50 (Protein RecA): 0.582 µM (active)
EC50 (BJ [14]): 0.622 µM (inconclusive)
EC50 (BJ [15]): 0.443 µM (active)
EC50 [16]: > 30 µM (not active)
AC50 (INS1): 2.19 µM (active)
EC50 (BJ [17]): 1.13 µM (inconclusive)
AC50 (Paired box protein Pax-8): 0.65 µM (active)
EC50 [18]: 8.2 µM (active)
EC50 [19]: 1.37 µM (inconclusive)
EC50 (BJ [20]): 2.65 µM (inconclusive)
EC50 [21]: 11.1 µM (active)
AC50 [22]: 2.56 µM (active)

Cc1cc(C)cc(NC(=S)N2CCN(c3ncc(C(F)(F)F)cc3Cl)CC2)c1
EC50 [2]: 2.66 µM (active)

O=C(c1cc(-c2cc(F)c(Cl)cc2Cl)n[nH]1)N1CCCCCC1
IC50 [4]: > 100 µM (inactive)
IC50 [5]: > 100 µM (inactive)
IC50 [6]: > 100 µM (not active)

CCN(CCNC(=O)CS(=O)(=O)Cc1nc(-c2cccc(OC)c2)oc1C)c1ccccc1
EC50 [7]: 1.49 µM (active)

Cc1cc(Nc2ccccc2)n(-c2ccc(Br)cc2)n1
EC50 [7]: 2.24 µM (active)

Cc1ccc(C(=O)NNC(=S)NC(=O)COc2ccccc2)cc1
EC50 [2]: 1.5 µM (active)
IC50 [23]: 36.3 µM (active)
CC50 (Vero): > 25 µM (active)

CC(/C=C\C=C\c1ccccc1)=N\NC(=O)c1cncc(Br)c1
CC50 [8]: > 20 µM (active)
CC50 [9]: 35 µM (active)
IC50 (cells): 12 µM (active)

Reference: ChEMBL document CHEMBL1201862, “PubChem BioAssay data set” (2004)
